Data published in US11802120B2, “Fused cyclic urea derivatives as CRHR2 antagonist” (RaQualia Pharma Inc., priority 2018, dated 2023).

Target: T1, human CRHR2-alpha (Homo sapiens, UniProt Q13324)
T1 sequence (Q13324 1-411): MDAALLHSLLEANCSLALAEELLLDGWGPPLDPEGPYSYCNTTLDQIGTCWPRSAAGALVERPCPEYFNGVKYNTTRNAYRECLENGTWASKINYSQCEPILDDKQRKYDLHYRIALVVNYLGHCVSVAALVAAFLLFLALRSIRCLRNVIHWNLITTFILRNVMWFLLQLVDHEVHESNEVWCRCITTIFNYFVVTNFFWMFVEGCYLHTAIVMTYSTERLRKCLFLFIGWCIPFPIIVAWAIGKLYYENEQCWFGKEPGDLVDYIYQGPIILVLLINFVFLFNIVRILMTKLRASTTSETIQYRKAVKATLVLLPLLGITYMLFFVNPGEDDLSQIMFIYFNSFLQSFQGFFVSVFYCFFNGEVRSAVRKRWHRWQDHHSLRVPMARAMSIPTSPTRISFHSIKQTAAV
Assay: cAMP functional assay for human CRHR2 (LANCE Ultra cAMP, TR-FRET)
Format: cell-based
Settings: CHO-K1 cells expressing human CRHR2-alpha, agonist human urocortin2 at EC80, cAMP; read-out: IC50 against CRHR2
Outline: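 Inhibition of agonist-driven cAMP was assessed in recombinant CHO-K1 cells at 25° C, using 30 min compound pretreatment and 30 min stimulation with EC80 human urocortin2 (CRHR2) or CRF (CRHR1). IC50 came from dose-response fitting.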

Structure (SMILES) | IC50
O=C(N[C@H]1CC[C@H](Cn2c(=O)n(Cc3ccncc3)c3ccccc32)CC1)c1cc(Cl)cnc1C(F)(F)F [Example 280, 5-chloro-N-((1r,4r)-4-((2-oxo-3-(pyridin-4-ylmethyl)-2,3-dihydro-1H-benzo[d]imidazol-1-yl)methyl)cyclohexyl)-2-(trifluoromethyl)nicotinamide] | < 300 nM
O=C(N[C@H]1CC[C@H](Cn2c(=O)n(Cc3ccncc3)c3ccccc32)CC1)c1cc(Cl)ccc1C(F)(F)F [Example 281, 5-chloro-N-((1r,4r)-4-((2-oxo-3-(pyridin-4-ylmethyl)-2,3-dihydro-1H-benzo[d]imidazol-1-yl)methyl)cyclohexyl)-2-(trifluoromethyl)benzamide] | < 300 nM
O=C(N[C@H]1CC[C@H](Cn2c(=O)n(Cc3ccccn3)c3ccccc32)CC1)c1cc(Cl)cnc1C(F)(F)F [Example 282, 5-chloro-N-((1r,4r)-4-((2-oxo-3-(pyridin-2-ylmethyl)-2,3-dihydro-1H-benzo[d]imidazol-1-yl)methyl)cyclohexyl)-2-(trifluoromethyl)nicotinamide] | < 300 nM
O=C(N[C@H]1CC[C@H](Cn2c(=O)n(Cc3ccccn3)c3ccccc32)CC1)c1cc(Cl)ccc1C(F)(F)F [Example 283, 5-chloro-N-((1r,4r)-4-((2-oxo-3-(pyridin-2-ylmethyl)-2,3-dihydro-1H-benzo[d]imidazol-1-yl)methyl)cyclohexyl)-2-(trifluoromethyl)benzamide] | < 300 nM
O=C(N[C@H]1CC[C@H](Cn2c(=O)n(Cc3cccnc3)c3ccccc32)CC1)c1cc(Cl)cnc1C(F)(F)F [Example 284, 5-chloro-N-((1r,4r)-4-((2-oxo-3-(pyridin-3-ylmethyl)-2,3-dihydro-1H-benzo[d]imidazol-1-yl)methyl)cyclohexyl)-2-(trifluoromethyl)nicotinamide] | < 300 nM
O=C(Cn1c(=O)n(C[C@H]2CC[C@H](NC(=O)c3cc(Cl)cnc3C(F)(F)F)CC2)c2ccccc21)c1ccccc1 [Example 285, 5-chloro-N-((1r,4r)-4-((2-oxo-3-(2-oxo-2-phenylethyl)-2,3-dihydro-1H-benzo[d]imidazol-1-yl)methyl)cyclohexyl)-2-(trifluoromethyl)nicotinamide] | < 300 nM
O=C(Cn1c(=O)n(C[C@H]2CC[C@H](NC(=O)c3cc(Cl)ccc3C(F)(F)F)CC2)c2ccccc21)c1ccccc1 [Example 286, 5-chloro-N-((1r,4r)-4-((2-oxo-3-(2-oxo-2-phenylethyl)-2,3-dihydro-1H-benzo[d]imidazol-1-yl)methyl)cyclohexyl)-2-(trifluoromethyl)benzamide] | < 300 nM
O=C(Cn1c(=O)n(C[C@H]2CC[C@H](NC(=O)c3cc(Cl)ccc3Cl)CC2)c2ccccc21)c1ccccc1 [Example 287, 2,5-dichloro-N-((1r,4r)-4-((2-oxo-3-(2-oxo-2-phenylethyl)-2,3-dihydro-1H-benzo[d]imidazol-1-yl)methyl)cyclo-hexyl)benzamide] | < 300 nM
O=C(N[C@H]1CC[C@H](Cn2c(=O)n(-c3ccccc3Cl)c3ncccc32)CC1)c1cc(Cl)cnc1C(F)(F)F [Example 288, 5-chloro-N-((1r,4r)-4-((3-(2-chlorophenyl)-2-oxo-2,3-dihydro-1H-imidazo[4,5-b]pyridin-1-yl)methyl)cyclo-hexyl)-2-(trifluoromethyl) nicotinamide] | < 300 nM
Cc1cnccc1-n1c(=O)n(C[C@H]2CC[C@H](NC(=O)c3cc(Cl)cnc3C(F)(F)F)CC2)c2ccccc21 [Example 289, 5-chloro-N-((1r,4r)-4-((3-(3-methylpyridin-4-yl)-2-oxo-2,3-dihydro-1H-benzo[d]imidazol-1-yl)methyl)cyclo-hexyl)-2-(trifluoromethyl) nicotinamide] | < 300 nM
CNC(=O)c1ccc(-n2c(=O)n(C[C@H]3CC[C@H](NC(=O)c4cc(Cl)cnc4C(F)(F)F)CC3)c3cc(F)ccc32)cn1 [Example 290, 5-(3-(((1r,4r)-4-(5-chloro-2-(trifluoromethyl)nico-tinamido)cyclohexyl)methyl)-5-fluoro-2-oxo-2,3-dihydro-1H-benzo[d]imidazol-1-yl)-N-methyl-picolinamide] | < 300 nM
N#Cc1ccccc1-n1c(=O)n(C[C@H]2CC[C@H](NC(=O)c3cc(Cl)cnc3C(F)(F)F)CC2)c2ccccc21 [Example 291, 5-chloro-N-((1r,4r)-4-((3-(2-cyanophenyl)-2-oxo-2,3-dihydro-1H-benzo[d]imidazol-1-yl)methyl)cyclo-hexyl)-2-(trifluoromethyl) nicotinamide] | < 300 nM
COc1ccc(C#N)c(-n2c(=O)n(C[C@H]3CC[C@H](NC(=O)c4cc(Cl)cnc4C(F)(F)F)CC3)c3ccccc32)c1 [Example 292, 5-chloro-N-((1r,4r)-4-((3-(2-cyano-5-methoxyphenyl)-2-oxo-2,3-dihydro-1H-benzo[d]imidazol-1-yl)methyl)cyclohexyl)-2-(trifluoromethyl)nicotinamide] | < 300 nM
N#Cc1ncccc1-n1c(=O)n(C[C@H]2CC[C@H](NC(=O)c3cc(Cl)cnc3C(F)(F)F)CC2)c2ccccc21 [Example 293, 5-chloro-N-((1r,4r)-4-((3-(2-cyanopyridin-3-yl)-2-oxo-2,3-dihydro-1H-benzo [d]imidazol-1-yl)methyl)cyclohexyl)-2-(trifluoro-methyl)nicotinamide] | < 300 nM
COCCn1nnc2cc(-n3c(=O)n(C[C@H]4CC[C@H](NC(=O)c5cc(Cl)cnc5C)CC4)c4ccccc43)ccc21 [Example 294, 5-chloro-N-((1r,4r)-4-((3-(1-(2-methoxyethyl)-1H-benzo[d][1,2,3]triazol-5-yl)-2-oxo-2,3-dihydro-1H-benzo[d]imidazol-1-yl)methyl)cyclohexyl)-2-methylnicotinamide] | < 300 nM
CCn1nc2ncc(-n3c(=O)n(C[C@H]4CC[C@H](NC(=O)c5cc(Cl)cnc5C)CC4)c4ccccc43)cc2c1C [Example 295, 5-chloro-N-((1r,4r)-4-((3-(2-ethyl-3-methyl-2H-pyrazolo[3,4-b]pyridin-5-yl)-2-oxo-2,3-dihydro-1H-benzo[d]imidazol-1-yl)methyl)cyclohexyl)-2-methylnicotinamide] | < 300 nM
Cc1ncc(Cl)cc1C(=O)N[C@H]1CC[C@H](Cn2c(=O)n(-c3ccn4cncc4c3)c3ccccc32)CC1 [Example 296, 5-chloro-N-((1r,4r)-4-((3-(imidazo[1,5-a]pyridin-7-yl)-2-oxo-2,3-dihydro-1H-benzo[d]imidazol-1-yl)methyl)cyclohexyl)-2-methylnicotinamide] | < 300 nM
CNc1cnc(-n2c(=O)n(C[C@H]3CC[C@H](NC(=O)c4cc(Cl)cnc4C(F)(F)F)CC3)c3ccccc32)cn1 [Example 298, 5-chloro-N-((1r,4r)-4-((3-(5-(methylamino)pyrazin-2-yl)-2-oxo-2,3-dihydro-1H-benzo[d]imidazol-1-yl)methyl)cyclo-hexyl)-2-(trifluoromethyl) nicotinamide] | < 300 nM
O=C(N[C@H]1CC[C@H](Cn2c(=O)n(-c3ccc(N[C@H]4CCOC4)nc3)c3ccccc32)CC1)c1cc(Cl)cnc1C(F)(F)F [Example 299, 5-chloro-N-((1S,4r)-4-((2-oxo-3-(6-(((S)-tetrahydro-furan-3-yl)amino)pyridin-3-yl)-2,3-dihydro-1H-benzo [d]imidazol-1-yl)methyl)cyclohexyl)-2-(trifluoro-methyl)nicotinamide] | < 300 nM
O=C(N[C@H]1CC[C@H](Cn2c(=O)n(-c3ccc(N[C@@H]4CCOC4)nc3)c3ccccc32)CC1)c1cc(Cl)cnc1C(F)(F)F [Example 300, 5-chloro-N-((1R,4r)-4-((2-oxo-3-(6-(((R)-tetrahydro-furan-3-yl)amino)pyridin-3-yl)-2,3-dihydro-1H-benzo [d]imidazol-1-yl)methyl)cyclohexyl)-2-(trifluoro-methyl)nicotinamide] | < 300 nM
O=C(N[C@H]1CC[C@H](Cn2c(=O)n(-c3ccc(OCCO)nc3)c3ccccc32)CC1)c1cc(Cl)cnc1C(F)(F)F [Example 301, 5-chloro-N-((1r,4r)-4-((3-(6-(2-hydroxyethoxy)pyridin-3-yl)-2-oxo-2,3-dihydro-1H-benzo[d]imidazol-1-yl)methyl)cyclohexyl)-2-(trifluoromethyl)nicotinamide] | < 300 nM
Cc1ccc(-n2c(=O)n(C[C@H]3CC[C@H](NC(=O)c4cc(Cl)cnc4C(F)(F)F)CC3)c3cccc(C)c32)cn1 [Example 302, 5-chloro-N-((1r,4r)-4-((4-methyl-3-(6-methylpyridin-3-yl)-2-oxo-2,3-dihydro-1H-benzo[d]imidazol-1-yl)methyl)cyclohexyl)-2-(trifluoromethyl)nicotinamide] | < 300 nM
Cn1cc(CCn2c(=O)n(C[C@H]3CC[C@H](NC(=O)c4cc(Cl)cnc4C(F)(F)F)CC3)c3ccccc32)cn1 [Example 303, 5-chloro-N-((1r,4r)-4-((3-(2-(1-methyl-1H-pyrazol-4-yl)ethyl)-2-oxo-2,3-dihydro-1H-benzo[d]imidazol-1-yl)methyl)cyclohexyl)-2-(trifluoromethyl)nicotinamide] | < 300 nM
CCn1nnc2cc(-n3c(=O)n(C[C@H]4CC[C@H](NC(=O)c5cc(Cl)cnc5C)CC4)c4ccccc43)ccc21 [Example 304, 5-chloro-N-((1r,4r)-4-((3-(1-ethyl-1H-benzo[d][1,2,3]triazol-5-yl)-2-oxo-2,3-dihydro-1H-benzo[d]imidazol-1-yl)methyl)cyclo-hexyl)-2-methylnicotinamide] | < 300 nM
